Test results as given in patent US10640507B2, “PBD antibacterial agents” (KING'S COLLEGE LONDON, priority 2015, dated 2020).
Read-outs that look alike come from different tables or passages of the source.

Key:
Assay type in all cases: cell-based
Details in all cases: drug at 4×MIC
[1] = tested on: K. pneumonia - NCTC 13368
Method: (§1) 1. Grow bacteria overnight.
(§2) 2. Subculture into an autoclaved conical flask containing 10 ml of TSB to an OD of 0.01 (˜1×10^7 Cfu/ml for KP-M6).
(§3) 4. Take aliquots (100 μl) at timepoints (0, 1, 2, 4, 6, 24 hours) and carry out a serial dilution in PBS (to remove drug and to dilute bacteria to countable numbers).
(§4) 5. Use the serial dilution to perform a Miles Misra—i.e. Add 3×10 μl spots of each dilution onto an agar plate. Incubate overnight and count colonies on spots in the morning.
(§5) 6. Control: Subculture bacteria alongside samples but with no antibiotic added. Take aliquots from this at every time point (0, 1, 2, 4, 6, 24 hours) and perform Miles Misra on these too (as detailed in points 4 and 5 above).
(§6) 7. After the first experiment, if the counts seen on Miles-Misra were zero, total viable counts were determined by spreading 200 μl in a streak down the centre of a TSB agar plate, waiting for the liquid to be absorbed and then spreading over the plate and checking for growth inhibition at the sight of the original streak.
(§7) 8. The compound is considered bactericidal if the inoculum was reduced >3 log10 CFU/ml and bacteriostatic if inoculum was reduced by 0-3 log10 CFU/ml.
(§8) Three measurements were taken for each compound at each time point. These measurements were averaged and the standard deviation was also calculated.

[2] = tested on: K. pneumonia - NCTC 13438
Method: as §1, §2, §3, §4, §5, §6, §7, §8

A. baumannii - AYE = tested on: A. baumannii - AYE
Method: as §1, §2, §3, §4, §5, §6, §7, §8

O=C(O)c1cn(C2CC2)c2cc(N3CCNCC3)c(F)cc2c1=O [CIP, ciprofloxacin, reference compound]
Average (CFU/ml) ([1]; time-point 1 hours): 2.38e+06 CFU/ml
n = 2 (CFU/ml) ([1]; time-point 1 hours): 110000 CFU/ml
n = 3 (CFU/ml) ([1]; time-point 1 hours): 28000 CFU/ml
viable count ([1]; time-point 1 hours): 7e+06 CFU/mL
Average (CFU/ml) ([1]; time-point 2 hours): 118000 CFU/ml
n = 2 (CFU/ml) ([1]; time-point 2 hours): 650 CFU/ml
n = 3 (CFU/ml) ([1]; time-point 2 hours): 2500 CFU/ml
viable count ([1]; time-point 2 hours): 350000 CFU/mL
Average (CFU/ml) ([1]; time-point 4 hours): 75.3 CFU/ml
n = 2 (CFU/ml) ([1]; time-point 4 hours): 55 CFU/ml
n = 3 (CFU/ml) ([1]; time-point 4 hours): 170 CFU/ml
viable count ([1]; time-point 4 hours): 0 CFU/mL
Average (CFU/ml) ([1]; time-point 6 hours): 65.3 CFU/ml
n = 2 (CFU/ml) ([1]; time-point 6 hours): 80 CFU/ml
n = 3 (CFU/ml) ([1]; time-point 6 hours): 115 CFU/ml
viable count ([1]; time-point 6 hours): 0 CFU/mL
Average (CFU/ml) ([1]; time-point 24 hours): 0 CFU/ml
n = 2 (CFU/ml) ([1]; time-point 24 hours): 0 CFU/ml
n = 3 (CFU/ml) ([1]; time-point 24 hours): 0 CFU/ml
viable count ([1]; time-point 24 hours): 0 CFU/mL
n = 1 (CFU/ml) ([2]; time-point 1 hours): 1e+07 CFU/ml
n = 2 (CFU/ml) ([2]; time-point 1 hours): 9e+06 CFU/ml
n = 1 (CFU/ml) ([2]; time-point 2 hours): 3.8e+07 CFU/ml
n = 2 (CFU/ml) ([2]; time-point 2 hours): 3.7e+07 CFU/ml
Average (Log CFU/ml) ([2]; time-point 4 hours): 1.17E+09 Log CFU/ml
n = 1 (CFU/ml) ([2]; time-point 4 hours): 1.5e+09 CFU/ml
n = 2 (CFU/ml) ([2]; time-point 4 hours): 1e+09 CFU/ml
Average (Log CFU/ml) ([2]; time-point 6 hours): 3.07E+09 Log CFU/ml
n = 1 (CFU/ml) ([2]; time-point 6 hours): 3.9e+09 CFU/ml
n = 2 (CFU/ml) ([2]; time-point 6 hours): 2.5e+09 CFU/ml
Average (Log CFU/ml) ([2]; time-point 24 hours): 6.23E+09 Log CFU/ml
n = 1 (CFU/ml) ([2]; time-point 24 hours): 6e+09 CFU/ml
n = 2 (CFU/ml) ([2]; time-point 24 hours): 6.7e+09 CFU/ml
Average (CFU/ml) (A. baumannii - AYE; time-point 1 hours): 2e+06 CFU/ml
n = 1 (CFU/ml) (A. baumannii - AYE; time-point 1 hours): 2.1e+06 CFU/ml
n = 2 (CFU/ml) (A. baumannii - AYE; time-point 1 hours): 1.9e+06 CFU/ml
Average (CFU/ml) (A. baumannii - AYE; time-point 2 hours): 900000 CFU/ml
n = 1 (CFU/ml) (A. baumannii - AYE; time-point 2 hours): 1.2e+06 CFU/ml
n = 2 (CFU/ml) (A. baumannii - AYE; time-point 2 hours): 600000 CFU/ml
Average (CFU/ml) (A. baumannii - AYE; time-point 4 hours): 750000 CFU/ml
n = 1 (CFU/ml) (A. baumannii - AYE; time-point 4 hours): 800000 CFU/ml
n = 2 (CFU/ml) (A. baumannii - AYE; time-point 4 hours): 700000 CFU/ml
Average (CFU/ml) (A. baumannii - AYE; time-point 6 hours): 2.1e+06 CFU/ml
n = 1 (CFU/ml) (A. baumannii - AYE; time-point 6 hours): 2e+06 CFU/ml
n = 2 (CFU/ml) (A. baumannii - AYE; time-point 6 hours): 2.2e+06 CFU/ml
n = 1 (CFU/ml) (A. baumannii - AYE; time-point 24 hours): 7e+08 CFU/ml
n = 2 (CFU/ml) (A. baumannii - AYE; time-point 24 hours): 1.4e+08 CFU/ml
